# Measured values as given in US12006530B2, “Streptococcal proteases” (priority 2016, dated 2024).
# “Also recorded” adds a separate entry of the source. Peptide text beside a SMILES is read from it. * marks the point of attachment. Cbz = O=C(OCc1ccccc1)*; CHN2 = [N-]=[N+]=C*
# Columns and labels:
# [1] = test system: IgG degradation activity in culture supernatant of S. suis strain 10; test: Inhibitor profile of IgG degradation activity in S. suis culture supernatant, anti-IgG Western blot; format: biochemical, Streptococcus suis; settings: for IgG cleavage product in presence of inhibitor: concentrated (10×) supernatant of strain 10, porcine plasma; for IgG cleaving activity in the presence of class specific protease inhibitors: protease enriched ammonium sulfate precipitates of S. suis culture supernatant, porcine plasma
# Procedure: Concentrated (10×) culture supernatant of S. suis strain 10 was incubated with porcine plasma in presence of class specific protease inhibitors. The reaction was analyzed by anti-IgG western blot under reducing conditions.
# To monitor IgG cleavage activity in concentrated and fractionated culture supernatants, samples were incubated with 1% porcine plasma in PBS for 16 h at 37° C. prior to Western blot analyses.
# To identify the catalytic type of the IgG protease, the IgG degradation reaction was performed in the presence of 0.1-5 mM AEBSF (Sigma), 0.1-5 mM EDTA, 50-250 μM E-64 (Sigma), 0.1-5 mM Z-LVG-CHN2 (Bachem), 0.1-5 mM Iodoacetamide (Sigma) or 1/200 to 1/50 dilution of complete protease inhibitor cocktail (Roche).
# (§1) Samples for SDS-PAGE were prepared with either reducing or non-reducing sample buffer and heated to 95° C. for 5 min. 12% SDS-PAGE was either stained with Coomassie blue (Sigma), Coomassie Fluor™ Orange Protein Gel Stain (Invitrogen) or blotted to Hybond-P PVDF membrane (GE Healthcare) for western blot analyses. Membranes were blocked with 5% dry milk powder in 0.1% PBS-Tween, followed by incubation with horse-radish peroxidase conjugated antibodies. Goat anti-pig IgG-HRP (Thermo Scientific) and goat anti-porcine IgM-HRP (Thermo Scientific) was diluted 1:25′000 and goat anti-porcine IgA-HRP (Thermo Scientific) was diluted 1:12′500. Membranes were thoroughly washed with 0.1% PBS-Tween prior to development with Amersham ECL Select Western blotting detection reagent (GE Healthcare) according to manufactures instruction and pictured by LAS4000 imaging system (Fujifilm).
# S. suis IgdE^ΔC = test: Inhibitor profile of purified recombinant IgdE^ΔC, quantitative IgG degradation analysis; format: biochemical, Streptococcus suis; settings: porcine IgG
# Procedure: The time course of cleavage (A) was monitored by continuous sampling prior to Coomassie fluor orange stained SDS-PAGE under reducing conditions followed by densitometric quantification of the cleavage product. 1.67 μM porcine IgG was incubated with 0.2 μM purified rIgdE^ac. Overnight cleavage (16 h) was set as 100% relative cleavage. For the inhibitor profile (B) initial cleavage in presence of 250 μM and 2.5 μM of each inhibitor was monitored. Initial cleavage activity of the uninhibited control was set as 100% relative activity. The DMSO control correlates to 250 μM Z-LVG-CHN2. Data are presented as mean±SEM of three experiments. Differences to the uninhibited control (*) or DMSO control (□) were analyzed by Dunnett's Multiple Comparison Test with significance set at P values of <0.05(*), <0.01(**) and <0.001(*** or □□□).
# For time course analyses and inhibitor profiles the IgG degradation reaction was performed with 0.25 mg/ml porcine IgG and 2 μM purified IgdE^ΔC at 37° C. in PBS uninhibited or in the presence of 2.5 μM or […] AEBSF (Sigma), EDTA, E-64 (Sigma), lodoacetamide (Sigma), or Z-LVG-CHN2 (Bachem). DMSO (Sigma) at 0.275%, corresponding to the DMSO content in 250 µM Z-LVG-CHN2, was used as a solvent control. The reactions were continuously sampled and subjected to SDS-PAGE under reducing conditions. Protein bands were detected by staining with Coomassie Fluor™ Orange Protein Gel Stain (Invitrogen). The IgG degradation product was densitometrical quantified by imaging with LAS4000 imaging system (Fujifilm) and analyzed with Image Studio Version 3.1 (LI-COR Biosciences) software. Uninhibited over-night cleavage was set as 100% relative cleavage for the time course experiment. For the inhibitor profile the initial cleavage rate was calculated from the initial increase of cleavage product (0-25% relative cleavage) and the initial cleavage rate of the uninhibited reaction was set as 100% relative activity. Experiments were at least performed in triplicates. Statistical analyses were performed using GraphPad Prism Version 5.0.
# rat IgG = test: IgG cleavage by IgdE, SDS-PAGE; format: biochemical; settings: purified polyclonal IgG
# IgG in human serum = test: Ig cleavage in human serum, anti-IgG Western blot; format: biochemical
# Procedure: (§2) (A) rIgdEagalactiae was incubated with polyclonal IgG of six different species for 18 h at 37° C. and analyzed by SDS-PAGE under reducing conditions. Degradation products are indicated by asterisks (*). Images of different gels have been used to create the figure. (B) rIgdEagalactiae was incubated with human or bovine serum for 18 h in 37° C. and analyzed by SDS-PAGE under reducing conditions. Degradation products are indicated by asterisks (*). (C) Western Blot with crude extracts of rIgdEagalactiae incubated with human and porcine serum for 18 h in 37° C. Membrane was treated with antibodies against human and porcine polyclonal IgG respectively. Degradation products are indicated by asterisks (*). (D) rIgdEagalactiae was incubated with subclasses of human IgG as well as human IgA and IgM for 18 h in 37° C. and analyzed by SDS-PAGE under reducing conditions. Degradation products are indicated by asterisks (*). Images of different gels have been used to create the figure.
# porcine IgG [2] = test: Ig cleavage in porcine plasma or serum, anti-IgG Western blot; format: biochemical, pig
# Procedure: (A) 2% porcine plasma was incubated with (+) or without (−) 10 nM purified rIgdE.
# The reaction was analyzed by anti-porcine IgG, IgM and IgA Western blots under reducing conditions. Only cleavage of IgG was observed (*). (B) 0.5 mg/ml IgG of different species was incubated with (+) or without (−) 10 nM purified rIgdE and analyzed by SDS-PAGE under reducing conditions. No cleavage of IgG derived from any other species than pig (*) was observed. The weak protein band of 37 kDa is a contaminant present in lysate preparation (see lane 2) and not related to IgdE activity. Images of different gels have been assembled into one figure.
# as §1, with “Membranes were thoroughly washed with 0.1% PBS-Tween prior to development with Amersham ECL Select Western blotting detection reagent (GE Healthcare) according to manufactures instruction and pictured by LAS4000 imaging system (Fujifilm).” left out
# porcine IgG [3] = test: IgG cleavage by IgdE, SDS-PAGE; format: biochemical, pig; settings: purified polyclonal IgG, reducing SDS-PAGE
# Procedure: (A) Schematic illustration of IgdE and the different rIgdE constructs with potential active site residues substitutions and the C-terminal truncation variant. The secretion signal peptide (residues 1-37) is marked in light grey, the transglutaminase domain is boxed and the potential active site residues and substitutions are indicated. (B) 3.3 μM porcine IgG was incubated for 16 h at 37° C. with soluble fractions of E. coli cells expressing different rIgdE constructs. The reaction was analyzed SDS-PAGE under reducing conditions. […] The weak protein band of 37 kDa is a contaminant present in lysate preparation and not related to IgdE activity.
# (§3) 0.5 mg/ml of porcine IgG (Sigma) in PBS or of other species (human, goat, cow, horse and mouse; all Sigma) were incubated with either crude extracts of induced E. coli carrying S. suis IgdE constructs mentioned above or 10 nM purified rIgdE for 16 h at 37° C. prior subjection to SDS-PAGE under either reducing or non-reducing conditions.
# as §1
# human IgG = test: IgG cleavage by IgdE, SDS-PAGE; format: biochemical; settings: purified polyclonal IgG, reducing SDS-PAGE
# Procedure: as §2, §3, §1
# IgG = IgG degrading cysteine protease activity: specificity as summarised; format: biochemical; settings: summary statement
# Source text: Typically, polypeptides for use in accordance with the invention display immunoglobulin cysteine protease activity, and in particular IgG degrading cysteine protease activity. Preferably, the polypeptide cleaves IgG in the hinge region and more particularly in the hinge region of the heavy chain. Preferably, cleavage results in production of Fc and Fab fragments of IgG. Preferably the activity is specific for IgG. The IgG degrading cysteine protease activity may be determined by means of a suitable assay. For example, a test polypeptide may be incubated with IgG at a suitable temperature, such as 37° C. The starting materials and the reaction products may then be analysed by SDS PAGE to determine whether the desired IgG cleavage product is present. Typically this cleavage product is a 32 kDa fragment. Typically there is no further degradation of IgG after this first cleavage. The cleavage product may be subjected to N-terminal sequencing to verify that cleavage has occurred in the hinge region of IgG.
# The IgG degrading cysteine protease activity of the polypeptides is generally IgG-specific in that the polypeptides may not degrade other classes of Ig, namely IgM, and IgA, when incubated with these immunoglobulins under conditions that permit cleavage of IgG.
# mouse IgG = test: IgG cleavage by IgdE, SDS-PAGE; format: biochemical; settings: purified polyclonal IgG, reducing SDS-PAGE
# Procedure: as §3, §1
# cow IgG = test: IgG cleavage by IgdE, SDS-PAGE; format: biochemical; settings: purified polyclonal IgG, reducing SDS-PAGE
# Procedure: as §3, §1
# goat IgG = test: IgG cleavage by IgdE, SDS-PAGE; format: biochemical; settings: purified polyclonal IgG, reducing SDS-PAGE
# Procedure: as §3, §1
# horse IgG = test: IgG cleavage by IgdE, SDS-PAGE; format: biochemical; settings: purified polyclonal IgG, reducing SDS-PAGE
# Procedure: as §3, §1
# [4] = 125 fold molar excess of inhibitor, 37° C., up to 18 h
# [5] = purified recombinant IgdE^ΔC, inhibitor at 250 μM and 2.5 μM per FIG. 3
molecule,measurement,setting,value
NCCc1ccc(S(=O)(=O)F)cc1 [AEBSF],IgG cleavage product in presence of inhibitor,[1]; inhibitor 5 mM,no degradation product was observed
same,IgG cleavage product in presence of inhibitor,[1]; inhibitor 0.1-1 mM,A cleavage product of IgG can be observed
same,IgG cleaving activity in the presence of class specific protease inhibitors,[1],interfered moderately with IgG cleavage
same,IgG proteolytic activity of purified IgdE^ΔC in presence of inhibitor,S. suis IgdE^ΔC; [4],inhibited the IgdEAC moderately
CC(C)C[C@H](NC(=O)[C@H]1O[C@@H]1C(=O)O)C(=O)NCCCCN=C(N)N [E-64],IgG cleavage activity of S. suis culture supernatants in presence of inhibitor,[1]; at very high concentrations,interfered with IgG cleavage activity
same,IgG cleavage product in presence of inhibitor,[1]; inhibitor 50 μM,A cleavage product of IgG can be observed
same,IgG cleavage product in presence of inhibitor,[1]; inhibitor 250 μM,no degradation product was observed
same,IgG cleaving activity in the presence of class specific protease inhibitors,[1],appeared to inhibit IgG degrading activity
same,IgG proteolytic activity of purified IgdE^ΔC in presence of inhibitor,S. suis IgdE^ΔC; [5],did not inhibit
O=C(O)CN(CCN(CC(=O)O)CC(=O)O)CC(=O)O [EDTA],IgG cleavage product in presence of inhibitor,[1]; inhibitor 0.1-5 mM,A cleavage product of IgG can be observed
same,IgG cleaving activity in the presence of class specific protease inhibitors,[1],did not affect IgG cleavage
same,IgG proteolytic activity of purified IgdE^ΔC in presence of inhibitor,S. suis IgdE^ΔC; [5],fully active
CC(C)CC(NC(=O)OCc1ccccc1)C(=O)NC(C(=O)NCC(=O)C=[N+]=[N-])C(C)C (stereo not drawn) [Z-LVG-CHN2] (Cbz-Leu-Val-Gly-CHN2; configuration not given here),IgG cleavage product in presence of inhibitor,[1]; inhibitor 0.1-5 mM,no degradation product was observed
same,IgG cleaving activity in the presence of class specific protease inhibitors,[1],appeared to inhibit IgG degrading activity
same,IgG proteolytic activity of purified IgdE^ΔC in presence of inhibitor,S. suis IgdE^ΔC; [4],no cleavage product at all could be detected; also recorded: completely inhibited
NC(=O)CI [iodoacetamide],IgG cleavage product in presence of inhibitor,[1]; inhibitor 0.1-5 mM,no degradation product was observed
same,IgG cleaving activity in the presence of class specific protease inhibitors,[1],appeared to inhibit IgG degrading activity
same,IgG proteolytic activity of purified IgdE^ΔC in presence of inhibitor,S. suis IgdE^ΔC; [4],no cleavage product at all could be detected
"IgdEpseudoporcinus: IgdE isolated from S. pseudoporcinus strain ATCC BAA-1381, SEQ ID NO: 9 (protein, listed as Streptococcus pseudoporcinus) RENENVRQLQSENKQMKAVNLQEFSEKLKGEIAENQQFHIFKLGLNNYYIGGVRINELSDLAKNHDFIMIDNRATHNKYGVPHIIIMNKDDVIVHNQEDYNKEMAELTFAGDKPIQSDSYLPQKKRIHALFEIGLDSNRRQLLNAAGLKTPENSVIELDTFKIYSHGLAVDNKYYDEYSHFNNNTNVNITKQRFTENDNLIHNLITTSTAKDQPTDRDKVKTFVMYVANHTIYDWNAANNAVSNISDVNYYLGSDLFSITERKKAMCVGFSTTAARAFNMLGIPAYVVEGKNAQGVDHATARVYYNGKWHTIDGTGFINGNRTRSTLYTESHFRSVGEDSYQLVGLNEDIPFDRNYMKIDKVYEEWAPKQKTADLLLVNKDKSLVGLDRVAYVEPVYVDKNRQDALTQIYKKLKETMESSSKKNPSSGGFSSLLGSASSDIAKLEGSSQLTQEEYDKIHRSMTSILTFFAQLDKDAAEAFEKGNDYKNYLATTKHAQ",cleavage of polyclonal rat IgG,rat IgG,No degradation product was observed
same,cleavage of IgG in human serum,IgG in human serum,cleaved IgG in human and porcine serum
same,cleavage of IgG in porcine plasma or serum,porcine IgG [2],cleaved IgG in human and porcine serum
same,cleavage of polyclonal porcine IgG (32 kDa degradation product),porcine IgG [3],cleaved
same,cleavage of polyclonal human IgG (32 kDa degradation product),human IgG,cleaved
same,immunoglobulin specificity of the IgG degrading cysteine protease activity,IgG,specific for porcine IgG
same,cleavage of polyclonal mouse IgG,mouse IgG,No degradation product was observed
same,cleavage of polyclonal cow IgG,cow IgG,No degradation product was observed
same,cleavage of polyclonal goat IgG,goat IgG,No degradation product was observed
same,cleavage of polyclonal horse IgG,horse IgG,No degradation product was observed
